Experimental findings from ChEMBL document CHEMBL4725482, “In Silico-Guided Identification of New Potent Inhibitors of Carbonic Anhydrases Expressed in Vibrio cholerae” (ACS Med Chem Lett, 2020) are described below.

Usually Ki stands for a dissociation constant, usually derived from enzyme kinetics or from competition with a known ligand. Read a low Ki as a stronger hold on the target.

In one assay the target is Carbonic anhydrase 2 (Homo sapiens, UniProt P00918).
In the next assay the target is Carbonic anhydrase 1 (Homo sapiens, UniProt P00915).

Each structure is given as a SMILES string.

Carbonic anhydrase 1, sequence (P00915 whole entry): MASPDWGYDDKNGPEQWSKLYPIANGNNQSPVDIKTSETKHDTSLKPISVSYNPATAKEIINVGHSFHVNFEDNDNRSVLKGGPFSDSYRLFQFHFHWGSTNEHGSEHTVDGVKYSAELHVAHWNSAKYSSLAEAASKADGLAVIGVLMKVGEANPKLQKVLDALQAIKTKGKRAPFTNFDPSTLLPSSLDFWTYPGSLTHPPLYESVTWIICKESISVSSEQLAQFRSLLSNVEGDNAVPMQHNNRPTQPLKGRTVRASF

`NS(=O)(=O)c1ccc(CNC(=O)c2cccc(Cl)c2)cc1`: the Ki at Carbonic anhydrase 2 is 5.1 nM; at Carbonic anhydrase 1, 65.9 nM.

As for `NS(=O)(=O)c1ccc(CNC(=O)c2ccc(-c3ccccc3)cc2)cc1`, the Ki was 920 nM on Carbonic anhydrase 2 and 2110 nM at Carbonic anhydrase 1.

With `Cc1cccc(C(=O)NCc2ccc(S(N)(=O)=O)cc2)c1`, the Ki was 3.3 nM at Carbonic anhydrase 2 and 60.7 nM at Carbonic anhydrase 1.

Regarding `NS(=O)(=O)c1ccc(CNC(=O)c2ccc(Br)cc2)cc1`, the Ki on Carbonic anhydrase 2 is 63 nM; at Carbonic anhydrase 1, 95 nM.

With `NS(=O)(=O)c1ccc(CNC(=O)c2ccsc2)cc1`, the Ki on Carbonic anhydrase 2 was determined as 83.8 nM; on Carbonic anhydrase 1, 44.2 nM.

For the molecule `NS(=O)(=O)c1ccc(CNC(=O)c2ccccc2Cc2ccccc2)cc1`, the Ki at Carbonic anhydrase 2 was 54.4 nM; on Carbonic anhydrase 1, 98.3 nM.

As for `NS(=O)(=O)c1ccc(CNC(=O)c2cc(Cl)ccc2Cl)cc1`, the Ki at Carbonic anhydrase 2 is 31.6 nM; at Carbonic anhydrase 1 it was 77.8 nM.

On to `CSCCC(=O)NCc1ccc(S(N)(=O)=O)cc1`, for which the Ki came out at 69.5 nM on Carbonic anhydrase 2 and 572 nM at Carbonic anhydrase 1.

`NS(=O)(=O)c1ccc(CNC(=O)Cc2ccccc2F)cc1`: the values for the Ki at Carbonic anhydrase 2 and at Carbonic anhydrase 1 were 26.3 nM and 269 nM, respectively.
